# Values quoted from earlier work, collected in US20240216401A1, “COMBINATION THERAPY BY USING AKR1C3-ACTIVATED COMPOUND WITH IMMUNE CHECKPOINT INHIBITOR” (OBI Pharma, Inc., priority 2021, published 2024).
# System: tumor
# Conditions: in vitro and in vivo; references 6, 21; cited from earlier work
structure (smiles),measurement,value
CS(=O)(=O)OCCN(CCBr)c1c(C(=O)NCCOP(=O)(O)O)cc([N+](=O)[O-])cc1[N+](=O)[O-] [PR104],anti-tumor activity (in words),good anti-tumor activity
